Source: ChEMBL document CHEMBL1817597, “Antifungal thiopeptide cyclothiazomycin B1 exhibits growth inhibition accompanying morphological changes via binding to fungal cell wall chitin” (Bioorg Med Chem, 2011)
Active and inactive are the calls of the source.

How the values were obtained:
Mucor mucedo [1] = experiment: Effect on cell wall re-generation in Mucor mucedo IFO 7684 spheroplasts at 0.026 uM after 12 hrs by microscopic analysis; format: functional
Staphylococcus aureus [2] = experiment: Antimicrobial activity against Staphylococcus aureus IFO 12732 after 24 hrs by broth microdilution method; format: functional, organism-based
Proteus vulgaris = experiment: Antimicrobial activity against Proteus vulgaris IFO 3851 after 24 hrs by broth microdilution method; format: functional, organism-based
Fusarium fujikuroi [3] = experiment: Antimicrobial activity against Gibberella fujikuroi NBRC 6349 after 24 hrs by broth microdilution method; format: functional; conditions: NBRC 6349, 24 h
Fusarium solani [4] = experiment: Antimicrobial activity against Fusarium solani NBRC 8505 after 24 hrs by broth microdilution method; format: functional; conditions: NBRC 8505, 24 h
Rhizopus arrhizus [5] = experiment: Antimicrobial activity against Rhizopus oryzae IFO 4766 at <6.55 uM after 24 hrs by broth microdilution method; format: functional, organism-based
[6] = Binding affinity to chitin at 6.55 uM after 30 mins by HPLC analysis
Neurospora sitophila = experiment: Antimicrobial activity against Neurospora sitophila DSM 1130 at <6.55 uM after 24 hrs by broth microdilution method; format: functional
Mucor mucedo [7] = experiment: Inhibition of DNA synthesis in Mucor mucedo IFO 7684 assessed as [8-14C]-adenine uptake into acid-insoluble fractions at 0.13 uM after 25 mins by liquid scintillation counting; format: functional; conditions: IFO 7684, 25 min
Fusarium oxysporum [8] = experiment: Binding affinity to cell wall polysaccharides in Fusarium oxysporum NBRC 5942 at 6.55 uM after 30 mins by HPLC analysis
Mucor mucedo [9] = experiment: Antimicrobial activity against Mucor mucedo IFO 7684 after 24 hrs by broth microdilution method; format: functional; conditions: IFO 7684, 24 h
Fusarium solani [10] = experiment: Antimicrobial activity against Fusarium solani NBRC 5899 at <6.55 uM after 24 hrs by broth microdilution method; format: functional, organism-based
Candida albicans = experiment: Antimicrobial activity against Candida albicans IFO 1061 after 24 hrs by broth microdilution method; format: functional, organism-based
Penicillium chrysogenum [11] = experiment: Antimicrobial activity against Penicillium chrysogenum IFO 4626 at <6.55 uM after 24 hrs by broth microdilution method; format: functional, organism-based
Staphylococcus aureus [12] = experiment: Antimicrobial activity against Staphylococcus aureus NCTC 8530 after 24 hrs by broth microdilution method; format: functional, organism-based
Fusarium oxysporum [13] = experiment: Induction of morphological changes in Fusarium oxysporum NBRC 5942 assessed as thickening of hyphae at MIC after 24 hrs by microscopic analysis; format: functional, organism-based
[14] = Binding affinity to chemically deacetylated chitin at 6.55 uM after 30 mins by HPLC analysis
Fusarium oxysporum [15] = experiment: Antimicrobial activity against Fusarium oxysporum NBRC 5942 at <6.55 uM after 24 hrs by broth microdilution method; format: functional, organism-based
Mucor mucedo [16] = experiment: Antifungal activity against Mucor mucedo IFO 7684 under hyperosmotic shock at 0.026 uM after 2 days by paper disc method; format: functional, organism-based
Mucor javanicus [17] = experiment: Antimicrobial activity against Mucor javanicus IFO 4569 at <6.55 uM after 24 hrs by broth microdilution method; format: functional
Penicillium chrysogenum [18] = experiment: Antimicrobial activity against Penicillium chrysogenum IFO 4626 after 24 hrs by broth microdilution method; format: functional; conditions: IFO 4626, 24 h
Mucor mucedo [19] = experiment: Induction of morphological changes in Mucor mucedo IFO 7684 assessed as thickening of hyphae at 0.026 uM after 24 hrs by microscopic analysis in presence of 100 uM of PKA inhibitor H8; format: functional, organism-based
Aspergillus nidulans = experiment: Antimicrobial activity against Aspergillus nidulans FGSC A4 after 24 hrs by broth microdilution method; format: functional; conditions: FGSC A4, 24 h
Pseudomonas aeruginosa = experiment: Antimicrobial activity against Pseudomonas aeruginosa IFO 3080 after 24 hrs by broth microdilution method; format: functional, organism-based
Fusarium oxysporum [20] = experiment: Antimicrobial activity against Fusarium oxysporum IFO 7152 at <6.55 uM after 24 hrs by broth microdilution method; format: functional, organism-based
Mucor mucedo [21] = experiment: Inhibition of total protein synthesis in Mucor mucedo IFO 7684 assessed as [U-14C]-leucine uptake into acid-insoluble fractions at 0.13 uM after 25 mins by liquid scintillation counting relative to control; format: functional; conditions: IFO 7684, 25 min
Bacillus licheniformis = experiment: Antimicrobial activity against Bacillus licheniformis IFO 12107 after 24 hrs by broth microdilution method; format: functional, organism-based
Mucor javanicus [22] = experiment: Antimicrobial activity against Mucor javanicus IFO 4569 after 24 hrs by broth microdilution method; format: functional; conditions: IFO 4569, 24 h
Fusarium graminearum = experiment: Antimicrobial activity against Gibberella zeae NBRC 8850 after 24 hrs by broth microdilution method; format: functional; conditions: NBRC 8850, 24 h
Rhizopus arrhizus [23] = experiment: Antimicrobial activity against Rhizopus oryzae IFO 4766 after 24 hrs by broth microdilution method; format: functional; conditions: IFO 4766, 24 h
Mucor mucedo [24] = experiment: Induction of morphological changes in Mucor mucedo IFO 7684 assessed as thickening of hyphae at MIC after 24 hrs by microscopic analysis; format: functional, organism-based
Fusarium fujikuroi [25] = experiment: Antimicrobial activity against Gibberella fujikuroi NBRC 6349 at <6.55 uM after 24 hrs by broth microdilution method; format: functional, organism-based
Escherichia coli = experiment: Antimicrobial activity against Escherichia coli IFO 3545 after 24 hrs by broth microdilution method; format: functional, organism-based
Rhodotorula mucilaginosa = experiment: Antimicrobial activity against Rhodotorula mucilaginosa IFO 0001 after 24 hrs by broth microdilution method; format: functional, organism-based
Fusarium oxysporum [26] = experiment: Antimicrobial activity against Fusarium oxysporum IFO 7152 after 24 hrs by broth microdilution method; format: functional; conditions: IFO 7152, 24 h
[27] = Binding affinity to curdlan at 6.55 uM after 30 mins by HPLC analysis
Mucor mucedo [28] = experiment: Induction of morphological changes in Mucor mucedo IFO 7684 assessed as abnormal hyphae branching at MIC after 24 hrs by microscopic analysis; format: functional, organism-based
Mucor mucedo [29] = experiment: Inhibition of RNA synthesis in Mucor mucedo IFO 7684 assessed as [8-14C]-adenine uptake into acid-insoluble fractions at 0.13 uM after 25 mins by liquid scintillation counting; format: functional, organism-based
Fusarium oxysporum [30] = experiment: Antimicrobial activity against Fusarium oxysporum NBRC 5942 after 24 hrs by broth microdilution method; format: functional; conditions: NBRC 5942, 24 h
Fusarium oxysporum [31] = experiment: Antifungal activity against Fusarium oxysporum NBRC 5942 under hypoosmotic shock assessed as increase of fragility of organism at 0.026 uM after 24 hrs measured after distilled water treatment for 10 mins by microscopic analysis; format: functional, organism-based
[32] = tested on: Fusarium sporotrichioides; experiment: Antimicrobial activity against Fusarium sporotrichioides NBRC 33236 at <6.55 uM after 24 hrs by broth microdilution method; format: functional
Fusarium solani [33] = experiment: Antimicrobial activity against Fusarium solani NBRC 5899 after 24 hrs by broth microdilution method; format: functional; conditions: NBRC 5899, 24 h
Saccharomyces cerevisiae = experiment: Antimicrobial activity against Saccharomyces cerevisiae IFO 0203 after 24 hrs by broth microdilution method; format: functional, organism-based
Mucor mucedo [34] = experiment: Inhibition of chitin synthase in Mucor mucedo IFO 7684 assessed as incorporation of GlcNAc from [14C]-UDP-GlcNAc into acid-insoluble fractions at 4 ug/ml after 55 mins by liquid scintillation counting
HL-60 = experiment: Cytotoxicity against human HL60 cells up to 65.5 uM after 24 hrs by Alamar blue assay; format: cell-based; conditions: hl-60, 24 h
Fusarium avenaceum = experiment: Antimicrobial activity against Fusarium avenaceum NBRC 33237 after 24 hrs by broth microdilution method; format: functional; conditions: NBRC 33237, 24 h

C=C1NC(=O)[C@H]2CSC(=N2)c2csc(n2)-c2ccc3c(n2)[C@H](C)NC(=O)[C@@H]2CCCN2C(=O)/C(=C/C)NC(=O)CNC(=O)[C@H](CCCNC(=N)N)NC(=O)C(C)(NC(=O)/C(=C/C)NC(=O)C2CSC(=N2)[C@H](CC(N)=O)NC3=O)SC[C@@H](C(=O)O)NC(=O)[C@H]2CSC(=N2)c2csc(n2)-c2csc1n2 [CYCLOTHIAZOMYCIN B1]
0.5 µg/mL: MIC (Fusarium oxysporum [30])
> 1000 µg/mL: MIC (Aspergillus nidulans) | MIC (Rhizopus arrhizus [23])
0.063 µg/mL: MIC (Fusarium graminearum)
37%: inhibition at 0.13 µM (Mucor mucedo [21])
0.25 µg/mL: MIC (Fusarium fujikuroi [3]) | MIC (Fusarium solani [4]) | MIC (Fusarium oxysporum [26]) | MIC (Fusarium solani [33]) | MIC (Fusarium avenaceum)
0.078 µg/mL: MIC (Mucor javanicus [22])
inactive: Activity (Staphylococcus aureus [2]) | Activity (Proteus vulgaris) | Activity (Rhizopus arrhizus [5]) | Activity (Neurospora sitophila) | Activity (Fusarium oxysporum [8]) | Activity (Fusarium solani [10]) | Activity (Candida albicans) | Activity (Penicillium chrysogenum [11]) | Activity (Staphylococcus aureus [12]) | Activity [14] | Activity (Fusarium oxysporum [15]) | Activity (Mucor mucedo [16]) | Activity (Mucor javanicus [17]) | Activity (Pseudomonas aeruginosa) | Activity (Fusarium oxysporum [20]) | Activity (Bacillus licheniformis) | Activity (Fusarium fujikuroi [25]) | Activity (Escherichia coli) | Activity (Rhodotorula mucilaginosa) | Activity [27] | inhibition (Mucor mucedo [29]) | Activity [32] | Activity (Saccharomyces cerevisiae) | inhibition (Mucor mucedo [34])
active: Activity (Mucor mucedo [1]) | Activity [6] | Activity (Fusarium oxysporum [13]) | Activity (Mucor mucedo [19]) | Activity (Mucor mucedo [24]) | Activity (Mucor mucedo [28]) | Activity (Fusarium oxysporum [31])
Non-toxic: Activity (HL-60)
84%: inhibition at 0.13 µM (Mucor mucedo [7])
0.63 µg/mL: MIC (Penicillium chrysogenum [18])
0.039 µg/mL: MIC (Mucor mucedo [9])
